Assays:
[1] = tested on: SUM149 and MDA-MB-231 cells; assay: In vitro invasion of an artificial basement membrane; format: cell-based, human; settings: 72 hours
Description: Effect of prodrugs on in vitro invasion of an artificial basement membrane by human breast cancer cells. SUM149 and MDA-MB-231 cells were trypsinized, resuspended in serum-supplemented medium, and counted. Cells were then washed 3 times with serum-free medium. Plates (6-well) compatible with transwell inserts with 8 μm pore-size polycarbonate filters (Fisher Scientific) were coated with Matrigel in cold serum-free DMEM/F12 at a final concentration of 0.7 mg/mL and held at room temperature for 40 minutes. Cells (in 500 μL serum-free medium) were added into the transwell inserts and incubated for 72 hours in the absence or presence 5 μM prodrug in DMSO (1% by volume). For a control, 10% FBS was used to evaluate the baseline extent of invasion of the different cell lines. After incubation, noninvading cells on the upper surface of the filter were removed with cotton swabs. Cells that had passed through the pores onto the lower side of the filter were fixed, stained with Hema-3 stain (Fisher Scientific), and quantified. The experiments were performed in triplicate and were repeated twice.

Akt = assay: pAkt levels in BT20 cells; format: cell-based; settings: 5 μM; BT20, constitutively activated Akt
IL-6 = assay: Inhibition of IL-6 expression in lung tumor cells (ELISA); format: cell-based, human; settings: 5 μM; HCC-827
Description: Inhibition of IL-6 expression in lung tumor cells. HCC-827 cells were seeded in 6-well plates at a density of 4×10^5 cells/well. The following day, the media was replaced with fresh media containing low serum and treated the compound from Example 1 at a concentration of 5 μM. The cells were incubated at 37° C. and the supernatant was collected at 2, 4, 24, 48, and 72 hours post treatment. The supernatant was centrifuged at 2000 rpm for 3 minutes, transferred to fresh tubes and stored at −20 for further analysis. The supernatants were diluted six times with distilled water. The supernatants were then subjected to ELISA analysis for expression of Interleukin-6 (IL-6) as per the manufacturer's protocol (Hs Human IL-6 kit, R&D Systems, Minneapolis, Minn. USA, Cat #HS600B). The amount of secreted IL-6 was calculated and quantified based on the standards and plotted as bar graphs using Microsoft excel. […] Stat3 expresses IL-6 and IL-6 stimulates Stat3 activation, resulting in angiogenesis, cell cycling and cell survival.

[2] = tested on: MDA7, MDA-MB-231, SUM149, and SUM190; assay: Anchorage-independent growth in soft agar, four breast tumor models; format: cell-based; settings: MDA7, MDA-MB-231, SUM149, SUM190; 28 days
Description: Assay for anchorage-independent growth in soft agar Cells (5×10^5) were suspended in 1× DMEM/HEPES, 10% heat-inactivated FBS, 0.13% bicarbonate, and 0.33% BBL agar. The cells were plated on 1% base agar plates (60 mm) containing 1× DMEM/HEPES, 10% heat-inactivated FBS, and 1% BBL agar. Fresh serum-containing medium was fed to the cells on 3-day intervals. The dishes were then incubated at 37° C. with 5% CO2 for 28 days. The colonies that grew in soft agar were photographed and counted. Data are expressed as the number of colonies formed per plate±S.E.M. and three plates were counted per cell line.

[3] = tested on: MDA-MB-468 breast cancer cells; assay: Inhibition of growth of MDA-MB-468 breast cancer cells (MTT); format: cell-based, human; settings: 72 hr
Description: MDA MB 468 cells were plated at 1500 cells/well DMEM with high glucose 10% FBS. Cells were plated into 96 well plates (1500 cells per well) in. After 24 h the media was changed and cells were treated with DMSO or increasing amounts of the compound of Example 1 in DMSO. All wells had equal concentrations of DMSO. At 72 hr viability was measured with the MTT assay. […] In the mixtures of compounds of Examples 16, 22, 1 and 8. the total concentration of the drug is as listed on the X-axis. However, the mixtures are equimolar amounts of both drugs. For example, 5 μM of the drug is actually 2.5 μM of the compound of Example 16 and 2.5 μM the compound of Example 22. The same is true for the mixture of compounds Example 1 and Example 8.

SMILES: C/C(=C\C(=O)N[C@H]1CCc2cccc3c2N(C1=O)[C@H](C(=O)N[C@H](C)CCC(N)=O)C3)c1ccc(C(F)(F)P(=O)(OCOC(=O)C(C)(C)C)OCOC(=O)C(C)(C)C)cc1 [Example 1, (2E)-3-[4-[[bis[(2,2-dimethyl-1-oxopropoxy)methoxy]phosphinyl]difluoromethyl]phenyl]-but-2-enoyl-Haic-(R)-4-aminopentamide]
- invasion through the artificial basement membrane ([1]; 5 μM in DMSO): inhibited invasion
- effectiveness in invasion assay relative to Example 8 ([1]; 5 μM): more effective
- pAkt levels (Akt): no effect
- time for which IL-6 expression is inhibited (IL-6): 48 h
- colony formation in soft agar, four breast tumor models [2]: effectively inhibited colony formation

SMILES: CCCC[C@H](NC(=O)/C=C(\C)c1ccc(C(F)(F)P(=O)(OCOC(=O)C(C)(C)C)OCOC(=O)C(C)(C)C)cc1)C(=O)N1C[C@H]2CC2[C@H]1C(=O)N[C@@H](CCC(N)=O)[C@@H](C)OCc1ccccc1 (stereo partly drawn) [Example 16, (2E)-3-[4-[[bis[(2,2-dimethyl-1-oxopropoxy)methoxy]phosphinyl]difluoromethyl]phenyl]-but-2-enoyl-norleucinyl-(2S,3R,4S)-methanoprolinyl-(4S,5R)-4-amino-5-benzyloxyhexamide]
- potency in MTT viability assay relative to Example 1 [3]: somewhat more potent

— US8841257B2, “Inhibitors of STAT3 and uses thereof” (Board of Regents, The University of Texas System, priority 2009, dated 2014)
